Patent US10973748B2, “Compositions and methods for lightening skin and reducing hyperpigmentation” (Versitech Limited, priority 2016, dated 2021)

How the values were obtained:
[1] = tested on: MelanoDerm (Mel-300-A) epidermal equivalents containing melanocytes; experiment: Tissue viability of artificial skin model (CCK-8); type: cell-based, human; settings: whole treatment period (14 days), rapamycin 2.5 μM, 6-CEPN 10 μM, 8-CEPQ 5 μM
Method: (§1) Epidermal equivalents containing melanocytes (Mel-300-A) were maintained according to the manufacturer's instructions. Mel-300-A tissue was cultured in EPI-100-NMM-113 medium for 14 days. Agents were dissolved in tissue culture medium and changed every other day. The test agents were either (1) rapamycin (2.5 μM), as the positive control in depigmentation, (2) 6-CEPN (10 μM), or (3) 8-CEPQ (5 μM). The concentration of rapamycin used was lower than 6-CEPN and 8-CEPQ, as rapamycin is toxic to cells at higher concentration. Pigmentation of these skin equivalents was compared against treatment of cells with a culture medium only (denoted as “vehicle”). Tissue viability was assessed on day 14 by CCK-8 assay as described in Example 1. On day 14, single tissues were harvested and photographed. The L* parameter was used to evaluate skin lightening or darkening. The lighter the skin, the greater the L* value. ΔL* value was measured by a Chroma Meter CR400 (Konica Minolta) for an evaluation of lightening as a function of time. Three tissues for each treatment were frozen for the Solvable Melanin assay (Bessou-Touya et al., “Chimeric human epidermal reconstructs to study the role of melanocytes and keratinocytes in pigmentation and photoprotection.” Journal of investigative dermatology 111(6):1103-1108 (1998)). Additional tissues were fixed by 10% formanin. For melanin staining in paraffin-embedded tissues, Fontana-Masson silver staining was used as previously detailed (Barbosa et al., “A simple and economical modification of the Masson-Fontana method for staining melanin granules and enterochromaffin cells.” Stain technology 59(4):193-196 (1984)).

[2] = tested on: melan-a cells; experiment: Melanosome autophagy by fluorescence microscopy; type: cell-based, murine; settings: α-MSH, rapamycin 0.5 μM 24 hrs, 6-CEPN 10 μM, 8-CEPQ 5 μM 72 hrs
Method: Melan-a cells (1.5×10^5 cells/well) were seeded on coverslips in 6-well palte. The cells were treated with (1) α-MSH (1 μM) alone for 24 hrs, (2) α-MSH (1 μM) plus rapamycin (0.5 μM) for 24 hrs, (3) α-MSH (1 μM) plus 6-CEPN (10 μM), or (3) α-MSH (1 μM) plus 8-CEPQ (5 μM) for 72 hrs. Culture medium was removed carefully after the cells reached 50%˜70% level of confluence. Cells were stained by microscopy dual detection reagents (autophagy detection kit, Abcam) for 30 mins at 37° C. The stained cells were analyzed by wide-field fluorescence microscopy (60× magnification). Standard FITC filter and DAPI filter were set to image the autophagic signal and the nuclear signal, respectively.

[3] = molecular target: T1, tyrosinase (Mus musculus, UniProt P11344); experiment: Cellular tyrosinase activity assay (L-DOPA oxidation in cell lysates); type: cell-based, murine; settings: melan-a cells, α-MSH, 72 hrs; 6-CEPN 10 or 20 μM, 8-CEPQ 2.5 or 5 μM
T1 construct: endogenous in cells; host or cells: melan-a cells
T1 sequence (P11344 19-533): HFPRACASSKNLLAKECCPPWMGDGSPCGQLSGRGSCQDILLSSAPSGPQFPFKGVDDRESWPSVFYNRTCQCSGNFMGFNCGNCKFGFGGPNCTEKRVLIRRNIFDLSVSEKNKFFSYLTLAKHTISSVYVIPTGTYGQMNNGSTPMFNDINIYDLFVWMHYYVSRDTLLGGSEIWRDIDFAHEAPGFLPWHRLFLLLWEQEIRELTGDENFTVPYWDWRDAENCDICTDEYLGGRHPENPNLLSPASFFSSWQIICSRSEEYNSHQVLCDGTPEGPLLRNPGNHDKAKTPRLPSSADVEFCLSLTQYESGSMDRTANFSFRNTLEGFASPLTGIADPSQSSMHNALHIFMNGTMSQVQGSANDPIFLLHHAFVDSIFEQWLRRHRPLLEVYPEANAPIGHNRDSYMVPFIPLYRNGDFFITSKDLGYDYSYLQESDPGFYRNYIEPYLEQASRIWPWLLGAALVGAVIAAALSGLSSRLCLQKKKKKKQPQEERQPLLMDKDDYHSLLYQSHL
Method: Cellular tyrosinase activity was determined by measuring the oxidation of L-3,4-dihydroxyphenylalanine (L-DOPA) to dopachrome in cell lysates. Melan-a cells (1.5×10^5 cells/well) were plated in 1 mL of culture medium in a 24-well multidishes for at least 24 hrs prior to use. The cells were treated with α-MSH (1 μM) alone or with α-MSH plus different concentrations of testing agents for 72 hrs. The cells were washed with cold PBS and lysed in 900 μL of PBS with 1% Triton X-100. After being freeze-thawed at −80° C. for 30 min followed by 25° C. for 30 min, 100 μL of 10 mM L-DOPA was then added to each well. Following incubation at 37° C. for 1 hr, the absorbance of the agents was measured at 490 nm using Victor X4 Multilabel Plate Reader (PerkinElmer, Mass., USA).

[4] = tested on: MelanoDerm (Mel-300-A) epidermal equivalents containing melanocytes; experiment: Solvable Melanin assay in artificial skin model; type: cell-based, human; settings: 14 days, rapamycin 2.5 μM, 6-CEPN 10 μM, 8-CEPQ 5 μM
Method: Epidermal equivalents containing melanocytes (Mel-300-A) were maintained according to the manufacturer's instructions. Mel-300-A tissue was cultured in EPI-100-NMM-113 medium for 14 days. Agents were dissolved in tissue culture medium and changed every other day. The test agents were either (1) rapamycin (2.5 μM), as the positive control in depigmentation, (2) 6-CEPN (10 μM), or (3) 8-CEPQ (5 μM). The concentration of rapamycin used was lower than 6-CEPN and 8-CEPQ, as rapamycin is toxic to cells at higher concentration. Pigmentation of these skin equivalents was compared against treatment of cells with a culture medium only (denoted as “vehicle”). Tissue viability was assessed on day 14 by CCK-8 assay as described in Example 1. On day 14, single tissues were harvested and photographed. The L* parameter was used to evaluate skin lightening or darkening. The lighter the skin, the greater the L* value. ΔL* value was measured by a Chroma Meter CR400 (Konica Minolta) for an evaluation of lightening as a function of time. Three tissues for each treatment were frozen for the Solvable Melanin assay (Bessou-Touya et al., “Chimeric human epidermal reconstructs to study the role of melanocytes and keratinocytes in pigmentation and photoprotection.” Journal of investigative dermatology 111(6):1103-1108 (1998)). Additional tissues were fixed by 10% formanin. […]

[5] = tested on: MelanoDerm (Mel-300-A) epidermal equivalents containing melanocytes; experiment: Depigmentation in artificial skin model: brightness and L* value; type: cell-based, human; settings: 6-CEPN 10 μM, 8-CEPQ 5 μM
Method: as §1

[6] = tested on: MelanoDerm (Mel-300-A) epidermal equivalents containing melanocytes; experiment: Fontana-Masson silver staining of artificial skin model; type: cell-based, human; settings: day 14, rapamycin 2.5 μM, 6-CEPN 10 μM
Method: as §1

Compound | cytotoxicity (tissue viability) [1] | melanosome autophagy [2] | tyrosinase activity [3] | amount of melanin in human skin equivalents [4] | brightness of the tissues (visual examination) ([5]; 14 days, rapamycin 2.5 μM) | L* value vs negative control ([5]; day 14, rapamycin 2.5 μM) | thickness of basal layer of tissue [6]
O=c1c(O)c(-c2ccc(O)c(O)c2)oc2c(/C=C/c3ccccc3)c(O)cc(O)c12 [8-CEPQ, 8-C-(E-phenylethenyl)-quercetin] | without significant cytotoxicity | induced melanosome autophagy | significant inhibition on tyrosinase activity in a dose-dependent manner | significantly inhibited the amount of melanin | increased the brightness of the tissues | increased the L* value | 
CO[C@H]1C[C@@H]2CC[C@@H](C)[C@@](O)(O2)C(=O)C(=O)N2CCCC[C@H]2C(=O)O[C@H]([C@H](C)C[C@@H]2CC[C@@H](O)[C@H](OC)C2)CC(=O)[C@H](C)/C=C(\C)[C@@H](O)[C@@H](OC)C(=O)[C@H](C)C[C@H](C)/C=C/C=C/C=C/1C [rapamycin, reference compound] | without significant cytotoxicity |  |  |  |  |  | thinner than 6-CEPN-treated or non-treated control groups
